# Measured values: US20250099488A1, “ANTI-PARASITE COMPOUNDS” (AUSTRALIAN NATIONAL UNIVERSITY, priority 2022, published 2025)
# Several values for one entry are separate records, joined by “and”; a condition that tells them apart may be missing. Equal entries are not always repeated. Where two headings read alike, the source gives them in different places.
# Columns and labels:
# [1] = test system: human foreskin fibroblasts (HFF); test: HFF growth inhibition assay (SYBR Safe); type: cell-based
# Procedure: Cells were incubated with a serial dilution of each compound, or media/DMSO alone. The protein synthesis inhibitor cycloheximide (10 μg/mL) was used as a positive control to determine background fluorescence. Approximately 5000 cells were seeded in each well. […] Plates were transferred to a −18° C. freezer. […] Fluorescence was read at 490 nm excitation/520 nm emission on a FLUOstar Optima fluorescence plate reader.
# HFF cell growth inhibition assays began with 5000 cells per well. 10 μg/mL cycloheximide was used as a no-growth control.
# [2] = test system: P. berghei liver stages; test: P. berghei liver stage growth assay (luciferase) in Huh7 cells; type: cell-based, Plasmodium berghei
# Procedure: (§1) Huh7 cells were seeded at a density of 10 000 cells per well, or 20 000 per collagen-coated coverslip. […] Uninfected wells served as a control for background luminescence. […] Data are presented as a percentage of the size or parasite number of the solvent control to normalize for differences between experiments. For cell images presented in the figure, images were collected under optimal exposure settings to ensure features were visible. Individual cells were cropped from larger images with Fiji ImageJ, and the brightness was adjusted while ensuring that no fluorescence was removed. No other manipulations were performed.
# (§2) Growth inhibition data were normalised by subtracting background fluorescence, luminescence, absorbance, or percentage of cells from a no-growth or no-viability control (high drug concentration, no-parasite control, or time=0 measurement as specified), and expressed as a percentage of the growth or cell percentage in the negative control (culture media alone or solvent control) at the indicated timepoint (or to the highest measurement reached during the assay for FIG. 15B).
# [3] = test system: asexual P. falciparum; test: Plasmodium growth inhibition assay (SYBR Safe), asexual stages; type: cell-based, Plasmodium falciparum; conditions: for IC90: read-out: IC90
# Procedure: Compounds or solvent controls (DMSO, ethanol, or ethyl acetate) were serially diluted 2-fold across flat-bottom 96-well plates. Complete culture media without compound was used as a negative control. Chloroquine (100-200 nM) {Sigma C6628} was used as a positive control to determine background fluorescence. The parasitaemia of a culture containing predominantly ring stage parasites was counted by Giemsa smear. The parasitaemia was adjusted to 1% by addition of fresh uRBCs, and added to the plate at a final haematocrit of 1%, with 200 μL per well. The plates were incubated at 37° C. under humid microaerophilic conditions. […] Fluorescence was read at 490 nm excitation/520 nm emission on a FLUOstar Optima fluorescence plate reader {BMG Labtech}.
# Growth inhibition data were normalised by subtracting background fluorescence from a no-growth control (high drug concentration or time=0 measurement as specified), and expressed as a percentage of the growth in the negative control (media alone or solvent control) either at the indicated timepoint, or to the highest measurement reached during the assay.
# P. falciparum asexual parasite assays begun with ring-stage parasites at 1% parasitaemia and 1% haematocrit. 200 nM chloroquine (Sigma C6628) was used as a no-growth control. […] 17]; 8 (2):e54974).
# as §2
# [4] = test system: P. falciparum gametocytes (stage III-IV); test: Gametocyte viability assay (MitoTracker, flow cytometry); type: cell-based, Plasmodium falciparum
# Source text: Gametocyte assays begun eight days post-invasion (Stage III-IV).
# as §2
# [5] = test system: P. berghei liver stage schizonts; test: P. berghei liver stage parasite size and number (fluorescence microscopy) in Huh7 cells; type: cell-based, Plasmodium berghei; conditions: for Smaller parasite size (reduction): 48 hours post-infection, vs DMSO
# Procedure: as §1
# [6] = test system: human embryonic kidney cells (HEK293); test: HEK293 cell viability assay (MTT); type: cell-based; conditions: 96 hours
# Procedure: HEK293 cell viability assays began with 5000 cells per well. 10 μg/mL cycloheximide was used as a no-growth control. Metabolic capacity (indicating viability) was measured by incubation with 0.45 mg/mL methylthiazolyldiphenyl-tetrazolium bromide (MTT; Sigma M2128) for two hours followed by crystal solubilisation in SDS.
# [7] = test system: human hepatoma cells (Huh7); test: Huh7 hepatoma viability assay (CellTiter-Blue); type: cell-based; conditions: 48 hours
# Procedure: Huh7 hepatoma viability assays were conducted in the same manner as the P. berghei assays, with metabolic capacity (indicating viability) measured by incubation with CellTiter-Blue® (Promega) for 3 hours.
# [8] = test system: Toxoplasma gondii tachyzoites; test: Toxoplasma growth inhibition assay (tdTomato fluorescence); type: cell-based
# Procedure: Fluorescent Toxoplasma gondii parasites were inoculated into an optical bottom 96-well plate containing confluent human foreskin fibroblast (HFF) host cells at a density of 2000 parasites/well, with a serial dilution of each compound, or media/DMSO alone. Plates were measured daily with a FluoStar Optima fluorescence plate reader at 540 nm excitation/590 nm emission for seven days, and the background fluorescence from the time 0 reading was subtracted from all other measurements.
# Fluorescence was measured daily with a FluoStar Optima fluorescence plate reader for one week, and the background fluorescence from the time 0 reading was subtracted from all other measurements.
# as §2
# [9] = test system: P. falciparum CAM3.IIREV (susceptible); test: Ring stage survival assay, susceptible revertant strain; type: cell-based, Plasmodium falciparum; conditions: 700 nM for six hours, then 66 hours without drug
# Source text: (§3) The inventors tested these compounds in a ring stage survival assay, which allows the detection of resistant parasites against this […] drug and is the standard method for investigating resistance to artemisinin and its derivatives (Witkowski B, Menard D, Amaratunga C. Fairhurst R. Ring-stage Survival Assays (RSA) to evaluate the in-vitro and ex-vivo susceptibility of Plasmodium falciparum to artemisinins Procedure. Inst Pasteur du Cambodge—Natl Institutes Heal [Internet]. 2013 Sep. 11 [cited 2022 Jun. 19]; Procedure; available from: https://www.wwarn.org/sites/default/files/INV10-Standard-Operating-Procedure-Ring-Stage-Survival-Assays.pdf). This assay involves a short treatment window against newly-invaded ring stage parasites, followed by removal of drug pressure to mimic the clearance of the drug from plasma. We utilised two parasite strains: an isolate from Cambodia (CAM3.II) with a mutated Kelch-13 conferring resistance, and a genetically modified revertant of this strain (CAM3.IIREV) conferring drug susceptibility (Straimer J, Gnädig N F, Witkowski B, Amaratunga C, Duru V, Ramadani A P, et al. K13-propeller mutations confer artemisinin resistance in Plasmodium falciparum clinical isolates. Science (80-) [Internet]. 2015 Jan. 23 [cited 2022 Jun. 19]; 347(6220):428-31; available from: https://www.science.org/doi/10.1126/science.1260867).
# (§4) Following tight synchronisation, CAM3.II and CAM3.IIREV ring stage parasites (0-3 hours post invasion) at 1% parasitaemia and 2% haematocrit were incubated with 700 nM of compounds or solvent-only controls for exactly six hours, before removing the drug, thoroughly washing in RPMI, and returning to culture conditions for a further 66 hours. Some cells were treated with 700 nM artesunate for 72 hours as a no-growth control. DNA replication (indicating growth) was measured at the specified time using SYBR Safe DNA Gel Stain. Microscope slide smears of each condition were stained with 10% v/v Giemsa and examined under a light microscope (1 000× magnification); with ‘viable’ (morphologically normal) and ‘non-viable’ (morphologically aberrant; vacuolated or pyknotic) parasites distinguished according to standard protocol (Witkowski B, Menard D, Amaratunga C, Fairhurst R. Ring-stage Survival Assays (RSA) to evaluate the in-vitro and ex-vivo susceptibility of Plasmodium falciparum to artemisinins Procedure. Inst Pasteur du Cambodge—Natl Institutes Heal [Internet]. 2013 Sep. 11 [cited 2022 Jun. 19]; Procedure. Available from: https://www.wwam.org/sites/default/files/INV10-Standard-Operating-Procedure-Ring-Stage-Survival-Assays.pdf). Images were captured using a Leica ICC50 camera, with a resolution of 76 nm per pixel.
# [10] = test system: P. falciparum CAM3.II (mutated Kelch-13, resistant); test: Ring stage survival assay, resistant strain; type: cell-based, Plasmodium falciparum; conditions: 700 nM for six hours, then 66 hours without drug
# Source text: as §3, §4
# [11] = in vivo; cited from earlier work
structure (smiles),measurement,setting,value
"COc1cc(NC(C)CCCNC(=O)CCC(=O)O[C@H]2CC[C@H]3[C@@H]4CC=C5C[C@@H](O)CC[C@]5(C)[C@H]4CC[C@]23C)c2ncccc2c1 (stereo partly drawn) [C-17-prim, 3β-Hydroxyandrost-5-en-17β-yl succinate-primaquine amide]",Concentration with substantial effect on fibroblast growth,[1]; 72 hours,10 µM
same,Maximal inhibition of HFF growth at the range of concentrations tested,[1]; 72 hrs,≤ 30%
same,Fold reduction in IC50 compared to primaquine alone,[2]; 48 hours,~15 fold
same,IC50,"[2]; Plasmodium berghei, Huh-7, 48 hours of treatment from sporozoite inoculation, Huh7 cells, FIG. 16A",0.2 µM
same,Fold lower IC50 than primaquine alone,[3],~4 fold
same,Fold difference in IC90 vs primaquine,[3]; 24 hours,~8 fold
same,Hill slope of inhibitory curve,[3]; 24 hours,−4.56
same,Hill slope of inhibitory curve,[3]; 72 hours,−4.20
same,IC50,"[3]; Plasmodium falciparum, 24 hours, starting with ring-stage parasites, FIG. 14B, read-out: IC50",3.1 µM
same,IC90,"[3]; Plasmodium falciparum, 24 hours",5 µM
same,IC90,"[3]; Plasmodium falciparum, 72 hours exposure time",4 µM
same,Fold reduction in IC50 compared to primaquine alone,[4]; 48 hours,9 fold
same,IC50,"[4]; Plasmodium falciparum, 48 h, read-out: IC50, gametocyte viability",6.9 µM
same,Smaller parasite size (reduction),[5]; 0.3 μM,48%
same,Smaller parasite size (reduction),[5]; 3 μM,90%
same,Parasite number (per coverslip),"[5]; 0.3 or 3 μM, compared to the same concentration of primaquine or DMSO-only control",significantly lower
same,Concentration at which gradual cytotoxicity emerges,[6],10 µM
same,Cell viability over the range of concentrations,[7],> 50%
same,Concentration at which cytotoxic effect was detected,[7]; effect on cellular integrity / modest cytotoxicity,3 µM
same,Fold lower IC50 than primaquine,[8]; 72 hours,~3.5 fold
same,IC50,"[8]; Toxoplasma gondii, 72 h, read-out: IC5 against T. gondii",2.8 µM
"C[C@H]1[C@H](OC(=O)CCC(=O)O)O[C@@H]2O[C@@]3(C)CC[C@H]4[C@H](C)CC[C@@H]1[C@@]24OO3 [artesunate, reference compound]",Morphology in Giemsa-stained smears,[9],only morphologically aberrant parasites were present
same,Morphology in Giemsa-stained smears,[10],a combination of morphologically normal parasites and morphologically aberrant pyknotic or vacuolated forms
same,Parasite survival (DNA replication),[10]; FIG. 17B,> 30% and ~30%
same,Half-life in blood,[11],30 to 90 min
